Measured values published in publication PMC4867616, “Imaging of Cerebral Amyloid Angiopathy with Bivalent ^99mTc-Hydroxamamide Complexes” (Scientific Reports, 2016).
“And” between values parts separate entries of the source, which are not always exact repeats. Equal entries are not always repeated. Where two headings read alike, the source gives them in different places.

Experiments:
[1] = normal mice, i.v., mean (SD), 5 animals, cited from earlier work
[2] = biological target: T1, CAA in Tg2576 mice (Homo sapiens, UniProt P05067); experiment: SPECT/CT imaging in Tg2576 and wild-type mice; type: in vivo; settings: 30 min postinjection
T1 construct: Aβ(1–40) aggregates, the predominant amyloid found in CAA; tissue Taconic Farms, Inc. (New York, USA); host or cells: brain of living female Tg2576 transgenic mice
Method: SPECT/CT imaging. Tg2576 transgenic mice (female, 27 or 30 months old) and wild-type mice (female, 27 or 30 months old) were used as the Alzheimer’s model and age-matched control, respectively. A saline solution (200 μL) of [^99mTc]SB2A (29.6-55.5 MBq) containing EtOH (40 μL) was injected directly into the tail vein. At 30 or 120 min postinjection, SPECT and CT images with the brain region as the ﬁeld of view were collected using the U-SPECT-II/CT system (MILabs, Utrecht, Netherlands) with 0.6-mm pinhole collimators (SPECT conditions, 30 min × 2 frames; CT conditions, accurate full angle mode in 65 kV/615 µA). The mouse was maintained under isoflurane anesthesia, while SPECT and then CT image data were collected. SPECT images were reconstructed by the OSEM method (16 subsets, 6 iterations) with a 0.4-mm Gaussian ﬁlter.

T1 sequence (P05067 672-711 limits assumed): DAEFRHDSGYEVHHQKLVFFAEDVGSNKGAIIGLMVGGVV

For CN(C)c1ccc(/C=C/c2ccc(C3=N[O][99Tc-]4(=[O])([NH]3)[NH2+]C(c3ccc(/C=C/c5ccc(N(C)C)cc5)cc3)=N[O]4)cc2)cc1 (single isomer, unassigned) [[^99mTc]SB2A], the “Biodistribution of radioactivity, Blood” value ([1]; 2 min after injection) is listed as 14.28 (1.90) % injected dose per gram, the “Biodistribution of radioactivity, Brain” value ([1]; 2 min after injection) is listed as 0.28 % injected dose per gram and 0.28 (0.03) % injected dose per gram and the “Biodistribution of radioactivity, Blood” value ([1]; 10 min after injection) is listed as 7.50 (0.51) % injected dose per gram. The “Biodistribution of radioactivity, Brain” value ([1]; 10 min after injection) was 0.17 (0.02) % injected dose per gram, the “Biodistribution of radioactivity, Blood” value ([1]; 30 min after injection) was 5.13 % injected dose per gram and 5.13 (0.57) % injected dose per gram and the “Biodistribution of radioactivity, Brain” value ([1]; 30 min after injection) was 0.12 (0.01) % injected dose per gram. The “Biodistribution of radioactivity, Blood” value ([1]; 60 min after injection) was 4.17 (0.24) % injected dose per gram, the “Biodistribution of radioactivity, Brain” value ([1]; 60 min after injection) was 0.11 (0.01) % injected dose per gram and the “Distribution in brains of Tg2576 versus wild-type mice (in vivo SPECT/CT)” value [2] was “not differentially distributed”.
